Measurements published in article PMC8468663, “Co-Spray Dried Nafamostat Mesylate with Lecithin and Mannitol as Respirable Microparticles for Targeted Pulmonary Delivery: Pharmacokinetics and Lung Distribution in Rats” (Pharmaceutics, 2021).
Counter-ions that a name gives are not always drawn.

Tests used:
[1] = cited from earlier work
in vivo = experiment: in vivo; design: species or system Sprague–Dawley rats; conditions: rat, 10 mg/kg; for half-life: T½
Experimental: The Chungbuk National University Institutional Animal Care and Use Committee approved the experimental protocols and animal care methods used in this study. The first in vivo experiment was a pharmacokinetic study to determine the efficacy of NFM based on the route of administration and to determine the effect of lecithin as a stabilizer. After preparing a 0.5% mannitol solution (w/v), NFM was added at a concentration of 25 mg mL^−1 to prepare solution A. In addition, Tween 80 was added to solution A at 1% (w/v), plus lecithin, which was added at a concentration of 25 mg mL^−1, and stirred to evenly disperse it to produce solution B. Each experiment was carried out using a male SD rat (8 weeks old, 230–250 g) in three groups of 16 animals each. The SD rats were fed a commercial pellet diet and fresh water and housed at room temperature (23 ± 1 °C) with a relative humidity of 50 ± 10%, and a 12 h light and dark cycle. First, the intravenous (IV) group was administered a 100 μL dose of solution A (10 mg·kg^−^1) intravenously through the lateral tail vein. Second, a 100 μL dose of solution A (10 mg kg^−^1) was administered by intratracheal instillation (ITI) to the intratracheal instillation-1 (ITI-1) group. Finally, the ITI-2 group was administered a 100 μL dose of solution B (10 mg·kg^−^1). For the analysis of plasma concentration, blood was collected via the orbital vein 1, 5, 10, 30, and 60 min after administration to each group (n = 4). Blood was collected in a heparin tube and gently shaken. Plasma was immediately separated from the blood samples by centrifugation at 3000 rpm for 2 min. After administration to each group (n = 12), 4 rats were sacrificed at 10, 30, and 60 min. BALF samples were obtained by injecting and extracting 5 mL DW into the lungs of the rats. Lung tissues were placed in 10 mL DW and homogenized at 18,000 rpm for 3 min using a homogenizer. Acetonitrile (ACN) was added to plasma, BALF, and lung tissue samples in a ratio of 1:1 (v/v) to precipitate the proteins, and the sample solutions were centrifuged at 18,000 rpm for 5 min to obtain a supernatant. The supernatant was quantified by HPLC analysis. A second in vivo experiment was performed to determine the efficacy of NFM microparticles in a DPI formulation, focusing on the lung lumen and tissue. First, the solution group was administered a solution at a dose of 0.25 mg NFM per rat by ITI (1 mg·kg^−^1). Second, the SD-NM group was treated using a dry powder insufflator for the intratracheal administration of the SD-NM in the form of DPI at a dose of 0.25 mg of NFM per rat (1 mg·kg^−^1). Finally, the SD-NLM group was administered an SD-NLM at a dose of 0.25 mg of NFM per rat (1 mg kg^−^1) using a dry powder insufflator. BALF and lung tissue samples were prepared using the same procedure as that used for the in vivo study described above. The samples were quantified by HPLC analysis.

[2] = test system: SARS-CoV-2 entry into host cells; design: method as in PMID 32312781; conditions: cited from earlier work
[3] = male, Sprague-Dawley, Amount of NFM in BALF
[4] = male, Sprague-Dawley, inhaled or intranasal

In the case of `N=C(N)c1ccc2cc(OC(=O)c3ccc(N=C(N)N)cc3)ccc2c1` [NFM, Nafamostat mesylate], the “Half-life in human blood” value [1] is given as “approximately 3 min”, the “Amount of NFM in BALF” value (in vivo; male, Sprague-Dawley, 10 min) is given as 4.48 µg/mL and the “Amount of NFM in BALF” value (in vivo; male, Sprague-Dawley, 30 min) is given as 1.69 µg/mL. It also gave a concentration at 10 min (in vivo; [3]) of 2900 ng/mL, a concentration at 30 min (in vivo; [3]) of 1690 ng/mL and a Tmax (in vivo; male, Sprague-Dawley, Tmax) of 5 min. The Cmax (in vivo; [4]) was 22900 ± 4640 ng/mL, the Tmax (in vivo; [4]) was 4.0 ± 1.00 min and the T½ (in vivo; [4]) was 28.6 ± 3.51 min. It also gave an AUC(0-inf) (in vivo; [4]) of 11200 ng·h/mL, a Cmax (in vivo; male, Sprague-Dawley, inhaled or intranasal, Cmax) of 25900 ± 4230 ng/mL and a half-life (in vivo; [4]) of 26.7 ± 2.6 min. For the same compound, the “AUC(inf)” value (in vivo; male, Sprague-Dawley, iv) was 436.1 ± 31.59 µg·min/mL, the AUC(0-inf) (in vivo; male, Sprague-Dawley, iv) was 7270 ng·h/mL and the concentration at 10 min (in vivo; male, Sprague-Dawley, iv, Amount of NFM in BALF) was 960 ng/mL. The Cmax (in vivo; male, Sprague-Dawley, iv, Cmax) was 43700 ± 7980 ng/mL, the half-life (in vivo; male, Sprague-Dawley, iv) was 13.2 ± 0.52 min and the “Amount of NFM in BALF” value (in vivo) was “still had remaining NFM in the BALF”. For the same compound, the “Amount of NFM in lung tissue” value (in vivo) was “some residual drug”, the “Amount of NFM in BALF” value (in vivo; iv) was “There was no NFM in the BALF” and the “Half-life of ITI-1 and ITI-2 groups relative to IV group” value (in vivo; iv) was “approximately twice”. The “EC50, inhibition of SARS-CoV-2 entry into host cells” value [2] was “low nanomolar range” and the “Efficiency of inhibition of SARS-CoV-2 entry relative to camostat mesylate” value [2] was “approximately 15 fold”.
